Experimental data reported in PMC3582512, “Application of a Novel Microtitre Plate-Based Assay for the Discovery of New Inhibitors of DNA Gyrase and DNA Topoisomerase VI” (PLoS ONE, 2013).
Entries after “also recorded” stand apart in the source; their conditions may differ.

Key:
M. mazei topo VI [1] = biological target: T1, M. mazei topo VI (Methanosarcina mazei, UniProt Q8PUB7+Q8PUB8); assay: Agarose gel-based DNA relaxation assay; assay type: biochemical; conditions: for IC50: gel relaxation assay, 1 unit (50 nM) topo VI, read-out: Approx. IC50 against M. mazei topo VI; for Mechanism (Topo VI): summary of mechanistic tests with M. mazei and S. shibatae topo VI
T1 construct: His tag; made in house
Experimental: (§1) The agarose gel-based assay was conducted as previously described, [44], [62]. In brief, topoisomerases were incubated with 0.5 µg of plasmid and the desired concentration of compound for 30 min at 37°C (for DNA gyrase and M. mazei topo VI) or 5 min at 75°C (for S. shibatae topo VI), in a total volume of 30 µL. […] Reactions were stopped by the addition of a loading buffer containing EDTA and the drug extracted by vortexing with either chloroform or aqueous butanol as required. In the case of M. mazei topo VI, it was necessary to include SDS in the loading buffer, at a final concentration of 1%. Samples were loaded onto a 1% agarose gel, run for the appropriate length of time and stained with ethidium bromide before visualisation on a UV transilluminator.

S. shibatae topo VI = biological target: T2, S. shibatae topo VI (Saccharolobus shibatae, UniProt O05207+O05208); assay: Protection from ADPNP-induced, S. shibatae topo VI-mediated DNA cleavage; assay type: biochemical, Sulfolobus shibatae
T2 construct: gift from Danielle Gadelle (University of Paris XI, Orsay)
Experimental: (§2) Assays to detect the stabilisation of cleavage complexes were identical to the protocol for topoisomerase activity detailed above, except as follows. Cleavage experiments with DNA gyrase were carried out in the absence of ATP and spermidine and 30 µL reactions were stopped with 3 µL 10% SDS and incubated with 3 µL 1 mg/mL proteinase K solution at 37°C for 1 h. For cleavage complex protection assays with suramin, the reaction buffer was modified to contain 4 mM CaCl2 rather than MgCl2.

E. coli DNA gyrase [2] = biological target: T3, E. coli DNA gyrase (Escherichia coli, UniProt P0AES4+P0AES6); conditions: not studied further in this paper; cited from earlier work
T3 construct: made in house

E. coli DNA gyrase [3] = biological target: T3, E. coli DNA gyrase; assay: DNA triplex-based microtitre plate screen, gyrase supercoiling; assay type: biochemical; conditions: 25 µM compound, duplicate
Experimental: The triplex-based assay was conducted as previously described [45]–[47]. In brief, oligonucleotide TFO1 was immobilised onto a streptavidin-coated microtitre plate. Excess oligonucleotide was removed by washing with buffer. […] The reaction was stopped by the addition of a low pH, high salt buffer and triplex formation was allowed to occur for 30 min at room temperature. The DNA retained on the plate was stained with SYBR Gold (Sigma) dye and the fluorescence readings for each well read in a SpectraMax Gemini fluorimeter (Molecular Devices).
Twelve plates were screened in duplicate over three days manually using a multichannel pipette as previously described. […] Each plate contained 16 control reactions: eight positive for enzyme activity, which contained enzyme but no library compounds, and eight negative for enzyme activity, which lacked both enzyme and library compounds. All controls were carried out with 5% DMSO.

M. mazei topo VI [4] = biological target: T1, M. mazei topo VI; assay: Native gel shift assay, topo VI binding to 147 bp DNA fragment
Experimental: In order to test the effects of hit compounds upon DNA binding by topoisomerases, samples of enzyme and drug were prepared under the following conditions in a final volume of 10 μL: 1 nM 147 bp linear fragment of DNA derived from pBR322, [82] 50 mM Tris•HCl (pH 7.5), 100 mM KCl, 5 mM MgCl2, 2 mM DTT, 10% w/v glycerol. Samples were incubated for 30 min at room temperature before being run on a 5% (29:1) Protogel acrylamide (National Diagnostics) gel in 90 mM Tris·Borate, 5 mM MgCl2 at 150 V for 45 min. The DNA was stained by soaking in 2 µg/mL ethidium bromide for 10 min and visualised under UV light.

[5] = biological target: T4, M. mazei DNA topoisomerase VI (Methanosarcina mazei, UniProt Q8PUB7+Q8PUB8); assay: DNA triplex-based microtitre plate screen, topo VI relaxation; assay type: biochemical; conditions: 25 µM compound, duplicate
T4 construct: His tag; made in house
Experimental: The triplex-based assay was conducted as previously described [45]–[47]. In brief, oligonucleotide TFO1 was immobilised onto a streptavidin-coated microtitre plate. Excess oligonucleotide was removed by washing with buffer. Topoisomerase reactions were carried out in a 30 μL reaction volume containing 1–2 units topoisomerase and 1 μg relaxed or negatively supercoiled pNO1 under the published reaction conditions, [47]; gyrase supercoiling: 35 mM Tris•HCl (pH 7.5), 24 mM KCl, 4 mM MgCl2, 2 mM DTT, 1.8 mM spermidine, 1 mM ATP, 6.5% (w/v) glycerol, 0.1 mg/mL bovine serum albumin; topo VI relaxation: 20 mM bis-tris propane (pH 6.5), 100 mM potassium glutamate, 10 mM MgCl2, 1 mM DTT, 1 mM ATP. […] The DNA retained on the plate was stained with SYBR Gold (Sigma) dye and the fluorescence readings for each well read in a SpectraMax Gemini fluorimeter (Molecular Devices).
Twelve plates were screened in duplicate over three days manually using a multichannel pipette as previously described. […] Once the data had been collected from the screen, the fluorescence signals for the duplicates were averaged and converted into percentage inhibition using the positive and negative controls. […] To analyse the degree of separation between a negative and positive result the Z' factor [51] for the assay was calculated from the data for the control reactions (Equation 1). […]

E. coli MG1655 = assay: Bacterial growth inhibition; assay type: cell-based, Escherichia coli; conditions: liquid and solid media
Experimental: (§3) For E. coli work, 10 mL cultures of E. coli MG1655 or NR698 were grown overnight at 37°C in LB medium. A 100 µL sample was then added to 10 mL of LB medium containing the desired concentration of compound. The culture was then allowed to grow at 37°C for 5 h and its OD600 measured every hour. For M. smegmatis, a 50 mL culture was grown for 48 h in Middlebrooks 7H11 medium at 37°C. A 100 µL sample was then added to 10 mL of Middlebrooks 7H11 containing the desired concentration of compound. The culture was then allowed to grow at 37°C for 9 h and its OD600 measured every three hours. For colony counting experiments M. smegmatis was grown for 48 h in 50 mL of Middlebrooks 7H9 medium at 37°C. A 100 µL sample was then added to 10 mL of Middlebrooks 7H9 medium containing the desired concentration test compound and allowed to grow at 37°C overnight. After 16 h, 20 µL samples were taken from these cultures and diluted 1 in 10,000 with Middlebrooks 7H9 medium. Petri dishes containing Middlebrooks 7H11 agar were prepared and 100 µL of each diluted culture was spread out. The plates were subsequently stored at 4°C. This was repeated every three hours for six hours, after which the plates were transferred to 37°C for 48 h. The numbers of colonies for each time point were counted manually.

E. coli DNA gyrase [6] = biological target: T3, E. coli DNA gyrase; assay: Gel-based gyrase-mediated DNA cleavage assay; assay type: biochemical; conditions: absence of ATP
Experimental: as §2

E. coli strain NR698 = assay: Bacterial growth inhibition, membrane-permeable strain; assay type: cell-based, Escherichia coli; conditions: liquid and solid media
Experimental: as §3

M. smegmatis mc^2155 = assay: Bacterial growth inhibition and colony counting; assay type: cell-based, Mycobacterium smegmatis
Experimental: as §3

E. coli DNA gyrase [7] = biological target: T3, E. coli DNA gyrase; assay: Agarose gel-based DNA supercoiling assay; assay type: biochemical
Experimental: as §1

T3 sequence (P0AES4 whole entry, one chain of several): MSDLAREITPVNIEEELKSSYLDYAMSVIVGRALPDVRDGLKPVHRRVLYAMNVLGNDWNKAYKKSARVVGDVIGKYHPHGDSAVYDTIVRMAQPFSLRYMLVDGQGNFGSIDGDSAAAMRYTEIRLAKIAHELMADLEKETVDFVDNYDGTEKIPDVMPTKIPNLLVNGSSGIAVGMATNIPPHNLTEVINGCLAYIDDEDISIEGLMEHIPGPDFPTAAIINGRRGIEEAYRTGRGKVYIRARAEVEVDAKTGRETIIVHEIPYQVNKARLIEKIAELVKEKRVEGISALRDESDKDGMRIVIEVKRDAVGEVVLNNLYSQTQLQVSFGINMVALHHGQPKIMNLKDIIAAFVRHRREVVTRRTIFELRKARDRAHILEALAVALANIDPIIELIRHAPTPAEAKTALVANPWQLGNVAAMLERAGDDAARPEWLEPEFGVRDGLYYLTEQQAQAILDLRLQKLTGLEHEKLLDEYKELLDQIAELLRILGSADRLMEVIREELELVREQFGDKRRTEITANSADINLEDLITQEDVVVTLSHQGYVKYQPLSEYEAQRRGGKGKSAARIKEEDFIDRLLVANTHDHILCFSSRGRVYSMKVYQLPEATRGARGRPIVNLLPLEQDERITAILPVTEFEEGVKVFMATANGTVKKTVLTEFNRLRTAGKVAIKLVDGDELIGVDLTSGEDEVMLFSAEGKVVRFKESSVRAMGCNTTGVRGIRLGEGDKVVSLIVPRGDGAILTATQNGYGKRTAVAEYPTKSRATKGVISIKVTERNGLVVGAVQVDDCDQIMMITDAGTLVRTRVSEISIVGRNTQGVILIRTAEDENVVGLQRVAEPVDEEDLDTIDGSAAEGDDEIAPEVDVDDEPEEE
T1 sequence (Q8PUB8 whole entry): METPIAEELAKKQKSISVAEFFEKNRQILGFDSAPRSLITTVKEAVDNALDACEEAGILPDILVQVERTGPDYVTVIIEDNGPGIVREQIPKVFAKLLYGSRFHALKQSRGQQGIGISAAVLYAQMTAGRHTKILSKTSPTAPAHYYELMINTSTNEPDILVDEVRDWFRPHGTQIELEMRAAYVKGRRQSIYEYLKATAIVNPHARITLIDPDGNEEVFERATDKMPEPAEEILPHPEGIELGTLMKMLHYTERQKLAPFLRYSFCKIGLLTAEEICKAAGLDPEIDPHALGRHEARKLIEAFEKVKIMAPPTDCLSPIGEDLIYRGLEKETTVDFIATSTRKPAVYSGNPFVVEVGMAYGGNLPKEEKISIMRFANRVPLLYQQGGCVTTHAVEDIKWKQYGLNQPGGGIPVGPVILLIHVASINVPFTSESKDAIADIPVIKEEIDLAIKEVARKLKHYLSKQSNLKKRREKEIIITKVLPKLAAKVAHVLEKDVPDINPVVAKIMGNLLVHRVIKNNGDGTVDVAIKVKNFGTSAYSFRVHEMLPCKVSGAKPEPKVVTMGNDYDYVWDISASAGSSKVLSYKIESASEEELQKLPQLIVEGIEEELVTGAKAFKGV
T1 sequence (Q8PUB7 whole entry): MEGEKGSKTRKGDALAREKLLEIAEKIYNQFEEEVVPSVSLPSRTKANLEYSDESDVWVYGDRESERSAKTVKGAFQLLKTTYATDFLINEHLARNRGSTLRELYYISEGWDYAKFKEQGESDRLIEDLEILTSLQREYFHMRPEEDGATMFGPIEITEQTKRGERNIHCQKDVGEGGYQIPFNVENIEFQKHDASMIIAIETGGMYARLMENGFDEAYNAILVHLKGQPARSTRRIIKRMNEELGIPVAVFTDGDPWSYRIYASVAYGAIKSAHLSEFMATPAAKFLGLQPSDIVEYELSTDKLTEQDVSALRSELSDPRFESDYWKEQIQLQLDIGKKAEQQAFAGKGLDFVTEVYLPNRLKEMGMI
T2 sequence (O05207 whole entry): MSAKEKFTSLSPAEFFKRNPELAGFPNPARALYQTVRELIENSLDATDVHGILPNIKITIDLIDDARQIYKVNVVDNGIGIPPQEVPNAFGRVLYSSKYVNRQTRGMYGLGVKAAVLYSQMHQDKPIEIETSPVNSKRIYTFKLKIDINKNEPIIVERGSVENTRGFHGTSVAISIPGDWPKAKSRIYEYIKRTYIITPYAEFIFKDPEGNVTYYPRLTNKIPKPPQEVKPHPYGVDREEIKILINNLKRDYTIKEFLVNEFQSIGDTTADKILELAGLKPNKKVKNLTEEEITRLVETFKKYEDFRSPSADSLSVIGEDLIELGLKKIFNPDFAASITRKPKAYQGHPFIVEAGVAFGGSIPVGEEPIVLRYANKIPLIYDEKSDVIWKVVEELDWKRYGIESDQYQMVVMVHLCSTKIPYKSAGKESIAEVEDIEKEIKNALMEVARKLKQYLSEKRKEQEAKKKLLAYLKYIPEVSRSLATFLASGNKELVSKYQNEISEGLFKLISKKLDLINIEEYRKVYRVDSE
T2 sequence (O05208 whole entry): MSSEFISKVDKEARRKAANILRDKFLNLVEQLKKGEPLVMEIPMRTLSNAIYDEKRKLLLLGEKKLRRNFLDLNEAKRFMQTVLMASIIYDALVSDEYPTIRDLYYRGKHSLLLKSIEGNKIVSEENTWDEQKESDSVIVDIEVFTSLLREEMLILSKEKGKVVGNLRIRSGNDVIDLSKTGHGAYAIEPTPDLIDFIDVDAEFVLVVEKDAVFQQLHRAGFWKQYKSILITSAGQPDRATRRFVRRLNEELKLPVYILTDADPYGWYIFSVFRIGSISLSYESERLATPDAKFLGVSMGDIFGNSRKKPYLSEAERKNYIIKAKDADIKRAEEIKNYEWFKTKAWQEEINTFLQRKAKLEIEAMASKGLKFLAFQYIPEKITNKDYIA
T4 sequence (Q8PUB8 whole entry): as the sequence (Q8PUB8 whole entry) above
T4 sequence (Q8PUB7 whole entry): as the sequence (Q8PUB7 whole entry) above

Nc1c2ccccc2nc2ccccc12 [9-Aminoacridne, 9-aminoacridine]
Inhibition in gel-based relaxation assay (hit validation) (M. mazei topo VI [1]): validated as hits
IC50 (M. mazei topo VI [1]): 6 µM
Mechanism (Topo VI) (M. mazei topo VI [1]): Prevents DNA cleavage
Prevention of ADPNP-induced DNA cleavage by S. shibatae topo VI (S. shibatae topo VI): appeared to prevent ADPNP-induced cleavage

CCn1cc(C(=O)O)c(=O)c2cc(F)c(N3CCNCC3)cc21 [Norfloxacin]
Mechanism (DNA gyrase), already characterised inhibitors (E. coli DNA gyrase [2]): Fluoroquinolone cleavage-complex stabiliser

CC1COc2c(N3CCN(C)CC3)c(F)cc3c(=O)c(C(=O)O)cn1c23 (stereo not drawn) [Ofloxacin]
Mechanism (DNA gyrase), already characterised inhibitors (E. coli DNA gyrase [2]): Fluoroquinolone cleavage-complex stabiliser

CCn1cc(C(=O)O)c(=O)c2cc(F)c(N3CCN(C)CC3)cc21.CS(=O)(=O)O [Perfloxacine Mesylate]
Mechanism (DNA gyrase), already characterised inhibitors (E. coli DNA gyrase [2]): Fluoroquinolone cleavage-complex stabiliser

CCn1cc(C(=O)O)c(=O)c2cc(F)c(N3CCNC(C)C3)c(F)c21 (stereo not drawn) [Lomefloxacin]
Mechanism (DNA gyrase), already characterised inhibitors (E. coli DNA gyrase [2]): Fluoroquinolone cleavage-complex stabiliser

CCn1nc(C(=O)O)c(=O)c2cc3c(cc21)OCO3 [cinoxacin]
Outcome in gyrase screen (hit threshold 25% inhibition) (E. coli DNA gyrase [3]): missed by the screen

C[C@H]1COc2c(N3CCN(C)CC3)c(F)cc3c(=O)c(C(=O)O)cn1c23 [Levofloxacin]
Mechanism (DNA gyrase), already characterised inhibitors (E. coli DNA gyrase [2]): Fluoroquinolone cleavage-complex stabiliser

CCn1cc(C(=O)O)c(=O)c2cc(F)c(N3CCNCC3)nc21 [enoxacin]
Outcome in gyrase screen (hit threshold 25% inhibition) (E. coli DNA gyrase [3]): missed by the screen

CCn1cc(C(=O)O)c(=O)c2cc3c(cc21)OCO3 [oxolinic acid]
Outcome in gyrase screen (hit threshold 25% inhibition) (E. coli DNA gyrase [3]): missed by the screen

COc1c(N2C[C@@H]3CCCN[C@@H]3C2)c(F)cc2c(=O)c(C(=O)O)cn(C3CC3)c12 [Moxifloxacin]
Mechanism (DNA gyrase), already characterised inhibitors (E. coli DNA gyrase [2]): Fluoroquinolone cleavage-complex stabiliser

COc1c(N2CCNC(C)C2)c(F)cc2c(=O)c(C(=O)O)cn(C3CC3)c12 (stereo not drawn) [Gatifloxacin]
Mechanism (DNA gyrase), already characterised inhibitors (E. coli DNA gyrase [2]): Fluoroquinolone cleavage-complex stabiliser

CCn1cc(C(=O)O)c(=O)c2ccc(C)nc21 [nalidixic acid]
Outcome in gyrase screen (hit threshold 25% inhibition) (E. coli DNA gyrase [3]): missed by the screen

C[n+]1c2cc(N)ccc2cc2ccc(N)cc21 [Acriflavinium]
Outcome in gyrase screen (hit threshold 25% inhibition) (E. coli DNA gyrase [3]): scored over the hit threshold
Mechanism (DNA gyrase), already characterised inhibitors (E. coli DNA gyrase [2]): ATPase inhibitor

CCN(CC)CCCC(C)Nc1c2ccc(Cl)cc2nc2ccc(OC)cc12 (stereo not drawn) [Quinacrine]
Inhibition in gel-based relaxation assay (hit validation) (M. mazei topo VI [1]): validated as hits
IC50 (M. mazei topo VI [1]): 8 µM
Mechanism (Topo VI) (M. mazei topo VI [1]): Prevents DNA cleavage
Prevention of ADPNP-induced DNA cleavage by S. shibatae topo VI (S. shibatae topo VI): appeared to prevent ADPNP-induced cleavage

O=C(O)c1cn(C2CC2)c2cc(N3CCNCC3)c(F)cc2c1=O [Ciprofloxacin]
Mechanism (DNA gyrase), already characterised inhibitors (E. coli DNA gyrase [2]): Fluoroquinolone cleavage-complex stabiliser

O=C1c2ccccc2C(=O)c2c(O)c(O)cc(O)c21 [Purpurin]
Effect on binding of M. mazei topo VI to DNA (M. mazei topo VI [4]): appeared to prevent the binding of topo VI to DNA; also recorded: appeared to prevent G-segment binding
Inhibition in gel-based relaxation assay (hit validation) (M. mazei topo VI [1]): validated as hits
IC50 (M. mazei topo VI [1]): 40 µM
Mechanism (Topo VI) (M. mazei topo VI [1]): Blocks DNA binding
Prevention of ADPNP-induced DNA cleavage by S. shibatae topo VI (S. shibatae topo VI): marked ability to reduce the amount of cleavage

O=C(O)c1cn(-c2ccc(F)cc2)c2cc(N3CCNCC3)c(F)cc2c1=O [Surafloxacin]
Mechanism (DNA gyrase), already characterised inhibitors (E. coli DNA gyrase [2]): Fluoroquinolone cleavage-complex stabiliser

COc1cc(NS(C)(=O)=O)ccc1Nc1c2ccccc2nc2ccccc12 [m-Amsacrine]
Inhibition in gel-based relaxation assay (hit validation) (M. mazei topo VI [1]): validated as hits
IC50 (M. mazei topo VI [1]): 30 µM
Mechanism (Topo VI) (M. mazei topo VI [1]): Prevents DNA cleavage

O=C1c2c(O)ccc(O)c2C(=O)c2c(NCCNCCO)ccc(NCCNCCO)c21 [Mitoxantrone]
Outcome in topo VI screen (hit threshold 25% inhibition) [5]: missed during the initial screen
Inhibition of growth / antimicrobial activity (E. coli MG1655): no inhibition of growth
Induction of gyrase-mediated DNA cleavage (E. coli DNA gyrase [6]; 10 µM): strongly induced DNA cleavage
Ability to stabilise the gyrase cleavage complex (E. coli DNA gyrase [6]; 100 µM): reduced
Inhibition of growth / antimicrobial activity (E. coli strain NR698): no inhibition of growth
Colony count relative to absence of drug (M. smegmatis mc^2155; 65 μM, grown in liquid media then plated onto drug-free agar): 2%
Inhibition of growth (M. smegmatis mc^2155; liquid broth / liquid cultures): strongly inhibited the growth; also recorded: found to inhibit the growth
Inhibition in gel-based supercoiling assay (hit validation) (E. coli DNA gyrase [7]): displayed inhibition
IC50 (E. coli DNA gyrase [7]; gel supercoiling assay, 1 unit of gyrase (12 nM), read-out: Approx. IC50 against E. coli DNA gyrase): 12 µM
Mechanism (DNA gyrase) (E. coli DNA gyrase [7]; summary of this study's mechanistic tests): Cleavage-complex stabiliser
Inhibition in gel-based relaxation assay (hit validation) (M. mazei topo VI [1]): found to inhibit M. mazei topo VI
IC50 (M. mazei topo VI [1]): 2 µM
Mechanism (Topo VI) (M. mazei topo VI [1]): Prevents cleavage
Prevention of ADPNP-induced DNA cleavage by S. shibatae topo VI (S. shibatae topo VI): appeared to prevent ADPNP-induced cleavage
